Patent publication US7659399B2, “1-thia-2,4a-diaza-cyclopenta[b]napththalene-3,4-diones and related compounds as anti-infective agents” (Achillion Pharmaceuticals, Inc., priority 2005, dated 2010)
Where a name gives a salt, the structure may show the parent alone.

How the values were obtained:
[1] = tested on: HEP 2 (laryngeal carcinoma); conditions: HEP 2 cells; positive control, known CC50; cited from earlier work
[2] = tested on: CHO (Chinese hamster ovary); conditions: CHO cells; positive control, known CC50; cited from earlier work
[3] = target: T1, E. coli DNA gyrase (Escherichia coli, UniProt P0AES4+P0AES6); test: DNA gyrase supercoiling assay; type: biochemical
T1 construct: made in house; host or cells: E. coli
Protocol: Enzyme activity is measured by a supercoiling assay that monitors the ATP-dependent conversion of relaxed pBR322 DNA to the supercoiled form. Analysis is done by gel electrophoresis through 1% agarose/TBE gel. DNA is visualized with an Alpha Imager 2200 Analysis System and the IC50 determined by nonlinear regression analysis with Graphpad Prism software. E. coli DNA gyrase enzyme subunits, gyrA and gyrB, are purified to homogeneity from over-expression constructs in E. coli.

[4] = target: T2, S. aureus topoisomerase IV (Staphylococcus aureus, UniProt P0C1S7+P0C1U9); test: Topoisomerase IV decatenation assay; type: biochemical; conditions: decatenation of kinetoplast DNA; read-out: inhibition of S. aureus topoisomerase IV activity IC50
T2 construct: made in house; host or cells: E. coli
Protocol: Enzyme activity is measured by a decatenation assay that monitors the ATP-dependent unlinking of DNA minicircles from kinetoplast DNA. Analysis is done by gel electrophoresis through 1% agarose/TBE gel. DNA is visualized with an Alpha Imager 2200 Analysis System and the IC50 determined by nonlinear regression analysis with Graphpad Prism software. S. aureus topoismerase IV enzyme subunits, grlA and grlB, are purified to homogeneity from over-expression plasmids in E. coli.

[5] = tested on: S. aureus ATCC 29213; test: Minimum inhibitory concentration (MIC) assay, broth microdilution; type: cell-based; conditions: Staphylococcus aureus, ATCC29213
Protocol: (§1) The antimicrobial activity of the compounds of the invention may be evaluated by a number of methods, including the following visual minimum inhibitory concentration (MIC) assay. This assay determines the minimum concentration of compound required to inhibit growth of a bacterial strain.
(§2) Whole-cell antibacterial activity is determined by broth microdilution using conditions recommended by the National Committee for Clinical Laboratory Standards (NCCLS).
(§3) Test compounds are dissolved in DMSO and diluted 1:50 in Mueller-Hinton II broth (Becton-Dickinson) to produce a 256 μg/ml stock solution. In a 96-well microtiter plate, the compound solution is serially two-fold diluted in Mueller-Hinton II broth. After the compounds are diluted, a […] aliquot of the test organism (˜1×10^6 cfu/mL) is added to each well of the microtiter plate. The final test concentrations range from 0.125-128 μg/mL. Inoculated plates are incubated in ambient air at 37° C. for 18 to 24 hours. The organisms selected for testing included laboratory strains S. aureus ATCC 29213 and E. coli ATCC 25922 (strains purchased from American Type Culture Collection, Manassas, Va.). The minimum inhibitory concentration (MIC) was determined as the lowest concentration of compound that inhibited visible growth of the test organism.

[6] = tested on: E. coli ATCC 25922; test: as above; type: cell-based; conditions: Escherichia coli, ATCC25922
Protocol: as §1, §2, §3

[7] = target: S. aureus DNA gyrase (Staphylococcus aureus, UniProt P0A0K8+P20831); test: DNA gyrase supercoiling assay; type: biochemical; conditions: do not inhibit
S. aureus DNA gyrase, sequence (P20831 whole entry): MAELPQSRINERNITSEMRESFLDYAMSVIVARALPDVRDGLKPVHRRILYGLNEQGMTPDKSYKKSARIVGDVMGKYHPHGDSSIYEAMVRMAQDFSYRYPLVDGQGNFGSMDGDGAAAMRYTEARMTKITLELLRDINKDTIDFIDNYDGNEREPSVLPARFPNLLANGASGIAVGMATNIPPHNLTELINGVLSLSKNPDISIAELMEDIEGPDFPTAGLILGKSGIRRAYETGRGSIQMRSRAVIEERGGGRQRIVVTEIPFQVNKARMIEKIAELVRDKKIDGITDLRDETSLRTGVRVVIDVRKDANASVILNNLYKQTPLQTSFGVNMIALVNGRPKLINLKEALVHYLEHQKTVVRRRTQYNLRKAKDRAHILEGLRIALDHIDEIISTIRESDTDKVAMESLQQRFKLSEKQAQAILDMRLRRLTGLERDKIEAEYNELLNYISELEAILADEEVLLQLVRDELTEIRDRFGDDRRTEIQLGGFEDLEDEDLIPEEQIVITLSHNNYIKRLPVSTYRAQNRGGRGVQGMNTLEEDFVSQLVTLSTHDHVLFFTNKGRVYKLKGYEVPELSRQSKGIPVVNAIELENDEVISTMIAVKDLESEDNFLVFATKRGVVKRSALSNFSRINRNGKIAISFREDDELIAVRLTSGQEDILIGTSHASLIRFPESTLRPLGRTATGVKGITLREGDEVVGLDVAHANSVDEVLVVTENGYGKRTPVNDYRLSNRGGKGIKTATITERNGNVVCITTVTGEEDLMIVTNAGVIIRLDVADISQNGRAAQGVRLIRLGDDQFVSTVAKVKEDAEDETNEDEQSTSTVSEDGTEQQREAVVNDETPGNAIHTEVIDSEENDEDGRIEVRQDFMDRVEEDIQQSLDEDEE
S. aureus DNA gyrase, sequence (P0A0K8 whole entry): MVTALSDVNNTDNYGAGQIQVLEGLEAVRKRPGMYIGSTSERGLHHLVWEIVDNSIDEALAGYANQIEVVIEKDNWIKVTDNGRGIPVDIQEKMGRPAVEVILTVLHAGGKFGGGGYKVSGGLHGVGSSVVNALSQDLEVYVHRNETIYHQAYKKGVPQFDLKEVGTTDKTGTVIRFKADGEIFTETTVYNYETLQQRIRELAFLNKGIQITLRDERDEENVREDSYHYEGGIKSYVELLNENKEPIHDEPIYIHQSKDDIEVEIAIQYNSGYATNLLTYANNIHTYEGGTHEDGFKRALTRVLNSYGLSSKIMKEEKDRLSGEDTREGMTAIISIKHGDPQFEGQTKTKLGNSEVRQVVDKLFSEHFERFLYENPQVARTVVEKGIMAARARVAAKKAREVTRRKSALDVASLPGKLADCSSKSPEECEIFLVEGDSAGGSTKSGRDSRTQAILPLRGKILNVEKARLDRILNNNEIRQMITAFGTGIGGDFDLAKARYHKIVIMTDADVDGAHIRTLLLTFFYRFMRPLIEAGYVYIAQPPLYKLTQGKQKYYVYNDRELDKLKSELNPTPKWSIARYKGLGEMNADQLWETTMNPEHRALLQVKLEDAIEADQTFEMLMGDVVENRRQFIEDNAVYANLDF

T2 sequence (P0C1U9 whole entry): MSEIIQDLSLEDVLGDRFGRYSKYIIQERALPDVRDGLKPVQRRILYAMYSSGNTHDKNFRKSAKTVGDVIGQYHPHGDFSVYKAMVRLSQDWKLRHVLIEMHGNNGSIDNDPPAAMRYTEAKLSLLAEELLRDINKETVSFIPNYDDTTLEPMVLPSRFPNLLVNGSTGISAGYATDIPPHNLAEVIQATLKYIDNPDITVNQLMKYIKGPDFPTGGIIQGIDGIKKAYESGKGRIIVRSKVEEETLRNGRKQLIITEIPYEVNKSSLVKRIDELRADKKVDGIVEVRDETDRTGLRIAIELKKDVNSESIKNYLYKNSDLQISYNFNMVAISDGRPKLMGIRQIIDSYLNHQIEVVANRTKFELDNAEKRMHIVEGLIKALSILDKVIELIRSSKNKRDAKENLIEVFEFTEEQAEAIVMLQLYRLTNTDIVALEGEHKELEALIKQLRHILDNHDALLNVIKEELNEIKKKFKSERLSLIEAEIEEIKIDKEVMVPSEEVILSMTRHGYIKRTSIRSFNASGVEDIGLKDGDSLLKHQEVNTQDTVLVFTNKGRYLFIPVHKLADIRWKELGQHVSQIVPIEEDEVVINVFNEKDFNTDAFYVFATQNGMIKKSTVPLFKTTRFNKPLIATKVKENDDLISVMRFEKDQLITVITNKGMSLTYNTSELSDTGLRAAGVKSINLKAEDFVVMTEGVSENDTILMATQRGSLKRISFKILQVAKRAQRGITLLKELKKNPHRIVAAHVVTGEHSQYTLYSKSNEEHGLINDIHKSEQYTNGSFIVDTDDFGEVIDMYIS
T2 sequence (P0C1S7 whole entry): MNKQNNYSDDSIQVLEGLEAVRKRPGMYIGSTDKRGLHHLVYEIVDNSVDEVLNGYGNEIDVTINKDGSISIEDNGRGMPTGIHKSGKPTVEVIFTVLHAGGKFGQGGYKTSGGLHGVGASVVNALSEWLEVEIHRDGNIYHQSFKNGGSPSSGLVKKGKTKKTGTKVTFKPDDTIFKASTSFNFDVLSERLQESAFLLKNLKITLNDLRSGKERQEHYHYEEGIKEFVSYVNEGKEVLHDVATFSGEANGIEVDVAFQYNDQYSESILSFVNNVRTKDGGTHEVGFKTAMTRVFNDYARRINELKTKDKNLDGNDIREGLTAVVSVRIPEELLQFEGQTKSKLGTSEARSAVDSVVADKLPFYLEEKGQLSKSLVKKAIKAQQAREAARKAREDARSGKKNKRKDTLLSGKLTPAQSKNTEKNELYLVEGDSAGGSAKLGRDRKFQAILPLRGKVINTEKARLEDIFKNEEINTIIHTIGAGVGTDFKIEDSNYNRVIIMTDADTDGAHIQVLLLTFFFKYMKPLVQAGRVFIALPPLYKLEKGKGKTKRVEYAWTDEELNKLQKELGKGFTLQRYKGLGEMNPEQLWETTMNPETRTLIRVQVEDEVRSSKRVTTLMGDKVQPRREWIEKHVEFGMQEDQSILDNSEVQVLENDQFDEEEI
T1 sequence (P0AES4 whole entry, one chain of several): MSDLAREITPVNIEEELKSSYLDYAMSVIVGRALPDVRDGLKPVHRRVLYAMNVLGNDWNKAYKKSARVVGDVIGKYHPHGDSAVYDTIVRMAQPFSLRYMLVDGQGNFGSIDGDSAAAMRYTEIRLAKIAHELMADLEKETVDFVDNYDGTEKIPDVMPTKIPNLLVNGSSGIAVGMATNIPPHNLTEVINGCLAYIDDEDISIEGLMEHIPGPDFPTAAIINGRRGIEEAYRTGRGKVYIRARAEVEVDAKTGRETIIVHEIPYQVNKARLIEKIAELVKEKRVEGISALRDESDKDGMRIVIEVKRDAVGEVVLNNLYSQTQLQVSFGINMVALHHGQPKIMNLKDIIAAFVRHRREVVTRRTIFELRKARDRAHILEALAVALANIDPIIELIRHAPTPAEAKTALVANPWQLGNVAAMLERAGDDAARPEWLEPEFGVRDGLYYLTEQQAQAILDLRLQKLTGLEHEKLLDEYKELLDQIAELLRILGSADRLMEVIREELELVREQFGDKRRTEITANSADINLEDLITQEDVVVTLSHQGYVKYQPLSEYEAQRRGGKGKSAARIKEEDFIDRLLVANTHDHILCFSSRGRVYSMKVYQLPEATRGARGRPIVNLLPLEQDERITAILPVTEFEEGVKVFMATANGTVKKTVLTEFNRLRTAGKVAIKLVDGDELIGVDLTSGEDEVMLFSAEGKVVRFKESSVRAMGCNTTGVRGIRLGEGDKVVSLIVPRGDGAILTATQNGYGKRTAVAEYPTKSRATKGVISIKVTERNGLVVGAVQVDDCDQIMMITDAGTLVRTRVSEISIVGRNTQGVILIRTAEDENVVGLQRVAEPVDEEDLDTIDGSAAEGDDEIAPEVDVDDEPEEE

| SMILES | CC50 [1] [µM] | CC50 [2] [µM] | IC50 [3] [µM] | IC50 [4] [µM] | MIC [5] [µg/mL] | MIC [6] [µg/mL] | IC50 [7] [µM] | melting point |
| --- | --- | --- | --- | --- | --- | --- | --- | --- |
| CC(C)(C)c1ccc(C(O)CCCN2CCC(C(O)(c3ccccc3)c3ccccc3)CC2)cc1 (centres unmarked) [Terfenadine] | 3 to 5 | 4.3 to 6.5 |  |  |  |  |  |  |
| CCc1c2s[nH]c(=O)c2c(=O)n2ccc(-c3cc(C)nc(C)c3)cc12 [Compound 9, 7-(2,6-Dimethylpyridin-4-yl)-9-ethyl-1-thia-2,4a-diaza-cyclopenta[b]naphthalene-3,4-dione hydrochloride] |  |  | < 1 | < 10 | 10 | 10 | > 200 |  |
| CCc1c2s[nH]c(=O)c2c(=O)n2ccc(-c3ccncc3)cc12 [Compound 8, 9-Ethyl-7-pyridin-4-yl-1-thia-2,4a-diaza-cyclopenta[b]naphthalene-3,4-dione hydrochloride] |  |  | < 1 | < 10 | 10 | 10 | > 200 |  |
| CCc1c2s[nH]c(=O)c2c(=O)n2ccc(-c3cc(C)nc(C)c3)cc12 (as salt: hydrochloride) [Compound 9, 7-(2,6-Dimethylpyridin-4-yl)-9-ethyl-1-thia-2,4a-diaza-cyclopenta[b]naphthalene-3,4-dione hydrochloride] |  |  |  |  |  |  |  | 279 to 280 °C (dec.) |
| CCc1c2s[nH]c(=O)c2c(=O)n2ccc(-c3ccncc3)cc12 (as salt: hydrochloride) [Compound 8, 9-Ethyl-7-pyridin-4-yl-1-thia-2,4a-diaza-cyclopenta[b]naphthalene-3,4-dione hydrochloride] |  |  |  |  |  |  |  | 289 to 290 °C (dec.) |
